Source: patent US10987357B2, “Aerosolized fluoroquinolones and uses thereof” (Horizon Orphan, LLC, priority 2005, dated 2021)
Where “and” joins values, the source holds several entries; their conditions need not be identical. Identical values can stand only once. Counter-ions that a name gives are not always drawn. Like-named read-outs stand apart in the source and are kept apart here.

How the values were obtained:
[1] = test system: Streptococcus pneumonia (Sp); details: Table 6; cited from earlier work
[2] = test system: Pseudomonas aeruginosa (Pa); details: cited from earlier work; for Pa MIC90: Table 6
[3] = in vivo
Experimental: In the second test, the tolerability and taste of a small aerosol sample from a 0.5 ml aliquot of the test formulation was determined in a single healthy human volunteer, following nebulization in a PARI eFlow nebulizer (Table 12).
The tolerability and taste of the drug during a very brief administration period and for a period of 10 minutes post administration were monitored. Tolerability parameters were of the following types: (i) cough, cough sensation, or sneezing (ii) irritation, burning or tightness of throat, (ii) irritation or runniness in nasal passages or eyes, (iii) irritation, burning or tightness of the lungs or shortness of breadth, and (iv) dizziness, headache, nausea or other systemic effects.

[4] = test system: MSSA; details: Table 6; cited from earlier work
[5] = physchem; details: for Initial Solution Appearance / Initial Solution pH: 10 mg/mL in sterile water; for Initial Solution Appearance: room temperature; for After pH Adjustment Appearance / After pH Adjustment pH / pH of final solution: 10 mg/mL; for After pH Adjustment Appearance / After pH Adjustment pH: titrated with 1N HCl; for solubility at 10 min: aqueous buffer, thermodynamic from solid
Experimental: A 2 to 20 mg sample of each antibiotic was weighed into sterile plastic tubes and brought up with a volume of sterile water to make a 10 mg/mL solution or suspension of the antibiotic. Samples were incubated for approximately 10 minutes at room temperature with occasional mixing, prior to further handling.
The insoluble solutions were titrated with 1N HCl to the point of visible solubility, and the pH of the solubilized solution determined.
After the pH adjustment, and following a further 10 minute incubation period with occasional mixing, the final appearance of the solutions was determined, just prior to the aerosol tolerability and taste test.

[6] = cited from earlier work
[7] = test system: methicillin resistant Staphylococcus aureus (MRSA); details: cited from earlier work; for MRSA MIC90: Table 6
[8] = Dissolution rate studies; details: 37° C.
[9] = test system: P. aeruginosa strain PAM 1723; assay: Mouse lung infection efficacy model; details: Pseudomonas aeruginosa, PAM1723, in Mus musculus
Experimental: The inoculum is adjusted to ca. 5×10^6 CFU/ml by correlation of absorbance at 600 nm with predetermined plate counts. […] On day 5, mice are infected by an intratracheal instillation of 0.05 ml of inoculum while under isoflurane anesthesia (5% isoflurane in oxygen running at 4 L/min). […] Mice are sacrificed 1 and 4 hours after treatment, their lungs removed, homogenized and plated to determine colony counts.

[10] = Rat pharmacokinetic model (IV vs microspray aerosol, intratracheal); assay type: in vivo, rats; details: for AUC: epithelial lining fluid (ELF)
Experimental: […] Blood samples are taken at various times over 3 hours to determine the plasma pharmacokinetic parameters. […] The plasma and tissue concentrations are determined by an HPLC method and the data are then fit using WinNonlin.

[11] = test system: elastase; details: cited from earlier work
[12] = in vivo; cited from earlier work
[13] = 750 mg oral dose; cited from earlier work
[14] = Gemifloxacin formulations with organic bases: pH and osmolality; assay type: physicochemical; details: before pH adjustment
From the text: (§1) It was filtered through a 0.45 micron filter.
as §1, §1, §1, §1

[15] = in vivo; cited from earlier work; remark: listed apart in the source
[16] = 2-10 minutes, 500 ml pH 7.4 Tris buffer, paddles 100 rpm
[17] = 10-30 minutes, pH 7.4 Tris buffer
[18] = 1 h, read-out: DeltaLOG CPU 1 hr, route IT, dose 25 mg/kg, 1 hr post-drug administration
[19] = 4 h, read-out: DeltaLOG CPU 4 hr, route IT, dose 25 mg/kg, 4 hr post-drug administration
[20] = rat, inhaled or intranasal, IT, 10 mg/kg
[21] = ip, 1 h, read-out: DeltaLOG CPU 1 hr, route IP, dose 25 mg/kg, 1 hr post-drug administration
[22] = ip, 4 h, read-out: DeltaLOG CPU 4 hr, route IP, dose 25 mg/kg, 4 hr post-drug administration

C[C@@H]1CN(c2c(F)c(F)c3c(=O)c(C(=O)O)cn(C4CC4)c3c2F)C[C@H](C)N1 [Orbifloxacin]
SP MIC90 [1]: 2 µg/mL | Pa MIC90 [2]: >32 µg/mL | Aerosol Tolerability and Taste [3]: very acidic, strong bitter unpleasant | cough on aerosol exposure [3]: associated with cough | MSSA MIC90 [4]: 2 µg/mL | Initial Solution Appearance [5]: white, cloudy, visible | After pH Adjustment Appearance [5]: colorless, transparent, no | After pH Adjustment pH [5]: 1.7 | solubility at 10 min [5]: > 10000 µg/mL | pH of final solution [5]: 1.7

CCC(=O)O[C@H]1[C@H](O[C@@H]2[C@@H](C)[C@H](O[C@H]3C[C@@](C)(OC)[C@@H](O)[C@H](C)O3)[C@@H](C)C(=O)O[C@H](CC)[C@@](C)(O)[C@H](O)[C@@H](C)C(=O)[C@H](C)C[C@@]2(C)O)O[C@H](C)C[C@@H]1N(C)C [erythromycin estolate]
solubility as fraction of that of the free base [6]: approximately 1/12

CCn1cc(C(=O)O)c(=O)c2cc(F)c(N3CCNC(C)C3)c(F)c21 (stereo not drawn) [Lomefloxacin]
SP MIC90 [1]: 16 µg/mL | Pa MIC90 [2]: 32 µg/mL | Aerosol Tolerability and Taste [3]: chemical taste, somewhat bitter, | MSSA MIC90 [4]: 2 µg/mL | Initial Solution pH [5]: 4.2 | Initial Solution Appearance [5]: cloudy, visible sediment | After pH Adjustment Appearance [5]: transparent, no sediment, | solubility at 10 min [5]: > 10000 µg/mL | pH of final solution [5]: 4.2 | MRSA MIC90 [7]: >32 µg/mL

C[C@H]1COc2c(N3CCN(C)CC3)c(F)cc3c(=O)c(C(=O)O)cn1c23.O=C(O)c1ccc2ccccc2c1O [levofloxacin xinafoate]
dissolution rate [8, 16]: approximately 1.24 mg/min | dissolution rate [8, 17]: 0.28 mg/min

CO/N=C1\CN(c2nc3c(cc2F)c(=O)c(C(=O)O)cn3C2CC2)CC1CN (stereo not drawn) [Gemifloxacin]
log reduction at 25 mg/kg [9, 18]: 3.2 | log reduction at 25 mg/kg [9, 19]: 2.28 | SP MIC90 [1]: 0.06 µg/mL | Pa MIC90 [2]: 8 µg/mL | rank of potency against Pa [2]: most potent | Aerosol Tolerability and Taste [3]: strong unpleasant bitter taste, strong | MSSA MIC90 [4]: 0.06 µg/mL | Initial Solution pH [5]: 4.7 | Initial Solution Appearance [5]: colorless, transparent, no | solubility at 10 min [5]: > 10000 µg/mL | F, % from Lung vs. IV ([10]; IT, 10 mg/kg): 86% | AUC [10, 20]: 536000 ng·h/mL | AUC ([10]; rat, iv, 8 mg/kg): 3720 ng·h/mL | half-life ([10]; rat, serum, iv, 8 mg/kg, read-out: Serum t1/2 (converted)): 1.04 h | MRSA MIC90 [7]: 2 µg/mL | rank of potency against MRSA [7]: most potent

C[C@H]1COc2c(N3CCN(C)CC3)c(F)cc3c(=O)c(C(=O)O)cn1c23.O=C(O)c1cc2ccccc2c(Cc2c(O)c(C(=O)O)cc3ccccc23)c1O [levofloxacin pamoate]
dissolution rate [8, 16]: approximately 0.146 mg/min | dissolution rate ([8]; 10-60 minutes, pH 7.4 Tris buffer): 0.0331 mg/min

COc1c(N2CCNC(C)C2)c(F)cc2c(=O)c(C(=O)O)cn(C3CC3)c12 (stereo not drawn) [Gatifloxacin]
log reduction at 25 mg/kg [9, 18]: 1.48 | log reduction at 25 mg/kg [9, 19]: 2.11 | log reduction at 25 mg/kg [9, 21]: 0.34 | log reduction at 25 mg/kg [9, 22]: 0.02 | SP MIC90 [1]: 0.5 µg/mL | Pa MIC90 [2]: 16 µg/mL | rank of potency against Pa [2]: most potent | Aerosol Tolerability and Taste [3]: moderate bitter unpleasant taste, | cough on aerosol exposure [3]: associated with cough | MSSA MIC90 [4]: 0.125 µg/mL | Initial Solution pH [5]: 7.0 | Initial Solution Appearance [5]: white, cloudy, visible | After pH Adjustment Appearance [5]: slight yellow color, | After pH Adjustment pH [5]: 3.0 | solubility at 10 min [5]: > 10000 µg/mL | pH of final solution [5]: 3.0 | F, % from Lung vs. IV ([10]; IT, 10 mg/kg): 100% | AUC [10, 20]: 54700 ng·h/mL | AUC ([10]; rat, iv, 10 mg/kg): 5320 ng·h/mL | MRSA MIC90 [7]: 4 µg/mL

O=C(O)CCCC[C@@H](S)CCS (racemic) [DHLA, dihydrolipoic acid]
effect on elastase activity after treatment of CF sputum [11]: did not increase elastase activity

O=C(O)c1cn(C2CC2)c2cc(N3CCNCC3)c(F)cc2c1=O [Ciprofloxacin]
penetration into lung tissues [12]: much less efficiently than levofloxacin | log reduction at 25 mg/kg [9, 18]: 2.32 | log reduction at 25 mg/kg [9, 19]: 1.45 | log reduction at 25 mg/kg [9, 21]: 1.59 | log reduction at 25 mg/kg [9, 22]: 0.41 | SP MIC90 [1]: 2 µg/mL | Pa MIC90 [2]: 8 µg/mL | rank of potency against Pa [2]: most potent | Aerosol Tolerability and Taste [3]: very strong, bitter unpleasant | peak concentration, serum [13]: ~4.2 µg/mL | time of peak drug concentration, serum [13]: 1.5 h | MSSA MIC90 [4]: 1 µg/mL | MRSA MIC90 [7]: 64 µg/mL

CO/N=C1\CN(c2nc3c(cc2F)c(=O)c(C(=O)O)cn3C2CC2)CC1CN (stereo not drawn) [Gemifloxacin mesylate]
pH of filtered solution in water [14]: 4.28 and 4.21 and 4.40 and 4.32 and 4.20

NC1CCN(c2nc3c(cc2F)c(=O)c(C(=O)O)cn3-c2ccc(F)cc2F)C1 (stereo not drawn) [Tosufloxacin]
log reduction at 25 mg/kg [9, 18]: 0.48 | log reduction at 25 mg/kg [9, 19]: 0.24 | log reduction at 25 mg/kg [9, 21]: 0 | log reduction at 25 mg/kg [9, 22]: -1.33 | SP MIC90 [1]: 0.5 µg/mL | Pa MIC90 [2]: 16 µg/mL | MSSA MIC90 [4]: 0.125 µg/mL | Initial Solution pH [5]: 3.5 | Initial Solution Appearance [5]: white, turbid, visible | After pH Adjustment Appearance [5]: white, cloudy, less turbid, | After pH Adjustment pH [5]: 1.5 | pH of final solution [5]: 1.5 | solubility on titration with 1N HCl ([5]; pH 1.5): solubility was not reached by pH 1.5 | MRSA MIC90 [7]: >16 µg/mL

DNase
increase of sol elastase activity after treatment of CF sputum [11]: 190%

CCCCCCCCCCCCCCCCCC(=O)O.C[C@H]1COc2c(N3CCN(C)CC3)c(F)cc3c(=O)c(C(=O)O)cn1c23 [levofloxacin stearate]
dissolution rate [8, 16]: 0.499 mg/min | dissolution rate [8, 17]: 0.161 mg/min

CC1COc2c(N3CCN(C)CC3)c(F)cc3c(=O)c(C(=O)O)cn1c23 (racemic) [Ofloxacin]
distribution into sputum [15]: 79% | Aerosol Tolerability and Taste [3]: bitter chemical taste, mild cough sensation

B1: reduced rhTrx: stable reduced form of recombinant human thioredoxin (protein, UniProt P10599 2-105, looked up)
Thioredoxin: VKQIESKTAFQEALDAAGDKLVVVDFSATWCGPCKMIKPFFHSLSEKYSNVIFLEVDVDDCQDVASECEVKCMPTFQFFKKGQKVGEFSGANKEKLEATINELV
modifications: reduced form
increase of sol elastase activity after treatment of CF sputum [11]: 60%
